# Measurements as given in US20130190275A1, “COMBINED THERAPIES OF ANTIPSYCHOTIC DRUGS AND TETRACYCLINES IN THE TREATMENT OF PSYCHIATRIC DISORDERS” (MOR RESEARCH APPLICATIONS LTD., priority 2006, published 2013).
# Experiments:
# [1] = test system: MK801 treated rats; assay: Pre-Pulse Inhibition (PPI) paradigm, MK801 animal model; type: in vivo, rat
# Method: Acoustic Startle Response (ASR) and Pre-Pulse Inhibition (PPI): Both experimental paradigms were performed in a room that was adjacent to the laboratory facilities and the animal stall and that was not used for other experiments. The animals were tested in squad of two with startle chambers counterbalanced across the different experimental groups. Startle response and prepulse inhibition were measured using two ventilated startle chambers (SR-LAB system, San Diego Instruments, San Diego, Calif.). Each chamber consisted of a Plexiglas cylinder resting on a platform inside a sound-attenuated, ventilated chamber. A high-frequency loudspeaker inside the chamber produced both a continuous broadband background noise of 70 dB and the various acoustic stimuli. Movement inside the tube was detected by a piezoelectric accelerometer below the frame. The amplitude of the whole body startle to an acoustic pulse was defined as the average of 100 one-msec accelerometer readings collected from pulse onset. These signals were then digitized and stored by a computer. Sound levels within each test chamber were measured routinely using a sound level meter (Radio Shack) to ensure consistent presentation. The SR-LAB calibration unit was used routinely to ensure consistent stabilimeter sensitivity between test chambers and over time (Swerdlow and Geyer, 1998, Schizophrenia Bulletin, 24(2), 285-301).
# Fifteen minutes before the behavioral procedures conducted at the fourth day, the subject was injected i.p. with an 0.1 mg/kg dose of MK801 or saline, for a total volume of 1 ml per kg of body weight. Next, the subjects passed the three behavioral procedures, described in the following paragraphs.
# ASR and PPI were measured using two startle chambers, with each chamber consisting of a Plexiglas cylinder resting on a platform inside a sound-attenuated, ventilated chamber (see also materials section). The animals were tested in pairs with startle chambers counterbalanced across the different experimental groups.
# PPI of the startle response was used as a measure of sensorimotor gating, with the startle chambers used to assess the ability of prepulse stimuli to block the startle response. […]
# Pre-Pulse Inhibition (PPI): Startle magnitude is expressed in all the procedures as arbitrary units. Percent PPI (% PPI) was calculated as the mean startle magnitude to stimulus-alone minus the mean startle magnitude to prepulse-stimulus trials, all divided by the mean stimulus-alone trials, and multiplied by 100. The overall mean % PPI was calculated for the four prepulse intensities (72, […], 80, 84 dB). Results were analyzed by two-way ANOVA with a between-subject measure of ‘group’ (difference the treatment groups) and ‘prepulse intensity’ (72, 76, 80, 84 dB).
# [2] = test system: patients who experience first psychotic episode; assay: CANTAB Spatial Working Memory (SWM), adjuvant study; type: in vivo, human; conditions: atypical antipsychotic drug+minocycline 200 mg/day vs +placebo
# Method: The study was carried out in patients who experience first psychotic episode, and has followed the patient for a total duration of 6 months. As the study examines Minocycline as an adjuvant drug, the sample includes patients receiving one of the following atypical anti-psychotic drugs: Risperdal, Zyprexa, Geodon, Seroquel, and Leponex. […] In addition, the subjects were assessed by a battery of computerized neuropsychological tests (CANTAB—Cambridge Neuropsychological Test Automated Battery), measuring attention, memory, and planning. Executive function was tested by two tasks of the CANTAB: planning was tested by a computerized modification of the Tower of London, and working memory by a spatial working memory task. Minocycline was given as an add-on therapy. […] Clinical status was evaluated by the aforementioned scales at the onset of the study, every week for the first 6 weeks, and then once a month for the rest of the study period. Cognitive capabilities were assessed by the neuropsychological battery of tests according to the following schedule: upon initiation of the study (referred to as visit 1 in FIGS. 5-8), 3 months (referred to as visit 2 in FIGS. 5-8), and 6 months (referred to as visit 3 in FIGS. 5-8) after the start of the study. […]
# [3] = Body weight change 12 weeks after start of treatment, adjuvant study; type: in vivo, human; conditions: atypical antipsychotic drug+minocycline 200 mg/day
# Method: The study was carried out in patients who experience first psychotic episode, and has followed the patient for a total duration of 6 months. As the study examines Minocycline as an adjuvant drug, the sample includes patients receiving one of the following atypical anti-psychotic drugs: Risperdal, Zyprexa, Geodon, Seroquel, and Leponex. […] Minocycline was given as an add-on therapy. Prior to randomization into minocycline/placebo adjuvant treatment, a preliminary (lead-in phase) screening phase of placebo treatment was undertaken: Placebo was given as an adjuvant to all patients for two weeks. […] Randomization was then carried out by the principal investigator. The raters and evaluators of the subjects participating in the study were blind to the randomization. […] The body weight of the patients was measured at the start of the study and then 12 weeks later (FIG. 12).
smiles,measurement,setting,value
CN(C)c1ccc(O)c2c1C[C@H]1C[C@H]3[C@H](N(C)C)C(O)=C(C(N)=O)C(=O)[C@@]3(O)C(O)=C1C2=O [minocycline],percent of PPI (% PPI),"[1]; drug+MK801 0.1 mg/kg i.p., minocycline 35 mg/kg x 3 days pretreatment, haloperidol 0.4 mg/kg i.p.",able to reverse the deficits caused by the MK801 treatment
same,percent of PPI (% PPI),[1]; minocycline alone (no MK801) vs saline,no statistically significant differences
same,SWM between errors,[2]; p<0.0001,improved significantly more than the placebo group
same,SWM strategy score,[2]; p<0.05,improved significantly more than the placebo group
same,proportion of patients who gained weight,[3],31%
same,proportion of patients who lost weight,[3],46%
